The values below come from ChEMBL document CHEMBL3507680, “University of Dundee, Gates Library screen for HepG2 cell viability”.

The nature of this data set: Human HepG2 cell viability assay in 384 well format. Type of data set: toxicity, cell-based. The note with it: HepG2 cells, read-out: Inhibition. The arrangement: dose 125 nL, time 70.5 hour; concentration not given beside the values.
Regarding `CC1(C)CN(C(=O)Nc2cc(C(F)(F)F)c[nH]c2=O)CCO1`, the cytotoxicity at 70.5 h was -6.62%.
Turning to `O=C(NCC1CCS(=O)(=O)C1)c1ccc(NC(=O)c2ccco2)cc1` (configuration not stated), the cytotoxicity at 70.5 h is 26.8%.
In the case of `O=c1n(CCNCc2cccc3ccccc23)nc2ccccn12` it was -12.6%; in that of `CC(C)(C)n1ncc(NCC(O)c2ccccc2C(F)(F)F)c(Cl)c1=O` (configuration not stated), 23.5%; in that of `O=c1n(CCNCc2ccc3ccccc3c2)nc2ccccn12`, -0.105%.
For `CC(C)c1noc(CCNC(=O)NCC2COc3ccccc3O2)n1` (configuration not stated), the cytotoxicity at 70.5 h was -11.6%.
In the case of `CCC(C)(C)N(C)CCOc1cccc(S(C)(=O)=O)c1` it was -3.09%; in that of `CN(C)C(=O)c1cccc(CCNS(C)(=O)=O)c1`, -2.26%.
As for `O=C(NCc1ccccc1OCCO)Nc1ccc2c(c1)CCC2`, the cytotoxicity at 70.5 h is 0.688%.
Regarding `CCn1nc(C)cc1C(=O)OCCNc1ncnc2ccccc12`, the cytotoxicity at 70.5 h stood at 27.6%.
In the case of `CNC(=O)C1CCCCN1C(=O)c1cn(CCOC)c2ccccc12` (configuration not stated) it was 0.571%.
With `CC(C)N(C)S(=O)(=O)N(C)Cc1cnn(Cc2ccccc2)c1` the figure was 3.45%.
Take `COCCn1cc(C(=O)N2CCCC2c2ccncc2)c2ccccc21` (configuration not stated): the cytotoxicity at 70.5 h was -4.2%.
As to `CN(C)C(=O)c1cccc(CCNc2ccccc2S(C)(=O)=O)c1`, the cytotoxicity at 70.5 h is -0.957%.
As to `COc1c(CNCc2ccccc2Cn2cncn2)c(C)nn1C`, the cytotoxicity at 70.5 h is -1.28%.
In the case of `Cc1ccc(NC2CCN(C(=O)CCCc3ccccn3)CC2)nn1` it was 9.21%; in that of `CCc1nccn1C1CCCN(C(=O)CCc2nc(C(C)C)no2)C1` (configuration not stated), -1.73%.
Take `Cc1nn(C)c(Cl)c1C1CCCN1C(=O)c1ccc(N(C)C)nn1` (configuration not stated): the cytotoxicity at 70.5 h was -12.9%.
In the case of `N#Cc1ccc(N2CCCN(CCCn3cncn3)CC2)cc1` it was -0.762%.
Consider `CC(C)(CNC(=O)Nc1nccs1)N1CCOCC1`, for which the cytotoxicity at 70.5 h is -6.21%.
In the case of `O=C(c1c[nH]c(=O)c(Cl)c1)N1CCc2ccccc2C1`, the cytotoxicity at 70.5 h came out at 1.04%.
In the case of `CCc1ncc(C(=O)NCCNc2ncnc3sccc23)s1` it was 18.2%; in that of `CC(=O)N(C)CC(=O)NC1(c2ccc(Br)cc2)CC1`, 4.73%.
As for `CCN(CC)CC(=O)Nc1ccc(-n2ccc(C(N)=O)n2)cc1`, the cytotoxicity at 70.5 h stood at 25.3%.
For `CC(C)N(C)CC(=O)Nc1ccc(-n2ccc(C(N)=O)n2)cc1`, the cytotoxicity at 70.5 h is -2.55%.
Turning to `Cc1cccc(CS(=O)(=O)c2nnc(N3CCOCC3)s2)c1`, the cytotoxicity at 70.5 h was 0.983%.
Turning to `CS(=O)(=O)CCSC1CCN(c2ccccc2F)C1=O` (configuration not stated), the cytotoxicity at 70.5 h was -14.2%.
For `CC(=O)N(C)CC(=O)NC1(c2ccc(F)cc2)CCCC1`, the cytotoxicity at 70.5 h was -2.78%.
Take `O=C(c1cnc(OCC(F)(F)F)c(Cl)c1)N1CCc2ccc(O)cc2C1`: the cytotoxicity at 70.5 h was -18.4%.
With `Cn1cc(C(=O)CC2CCCN2C(=O)c2ccc3[nH]ncc3c2)cn1` (configuration not stated) the figure was 30%; with `Cc1ccc(O)c(C(=O)N2CCCC2CC(=O)c2cnn(C)c2)c1` (configuration not stated), -4.97%.
Regarding `Cc1cc(CC(=O)NCC(O)c2ccc(OC(F)F)cc2)n[nH]1` (configuration not stated), the cytotoxicity at 70.5 h was -4.53%.
Consider `CCc1nc(C2CCCN(C(=O)C3=NN(CC)C(=O)CC3)C2)no1` (configuration not stated), for which the cytotoxicity at 70.5 h is -13.2%.
Take `N#Cc1ccc(CN2CCCN(CCCn3cncn3)CC2)cc1`: the cytotoxicity at 70.5 h was 3.01%.
On to `CC(C)c1n[nH]c(C2CN(Cc3ncc[nH]3)CCO2)n1` (configuration not stated), for which the cytotoxicity at 70.5 h amounted to 35.2%.
Turning to `Cc1ccccc1CN(Cc1ccccn1)C(=O)CN(C)C(C)C`, the cytotoxicity at 70.5 h came out at 2.63%.
In the case of `c1ccc(NCc2cccc(OCCN3CCOCC3)c2)nc1`, the cytotoxicity at 70.5 h turned out to be 6.42%.
In the case of `COCCC(=O)N(Cc1ccccn1)Cc1ccccc1C`, the cytotoxicity at 70.5 h was determined as 7.25%.
On to `O=c1[nH]nc(SCC2CCCO2)n1C1CC1` (configuration not stated), for which the cytotoxicity at 70.5 h is -6.11%.
`CS(=O)(=O)Nc1cccc(CNC(=O)CCNC(=O)c2cccs2)c1`: the cytotoxicity at 70.5 h amounted to 23.6%.
Take `COc1cc2c(cc1OC)CN(C(=O)Cn1nc(C)cc1C)CC2`: the cytotoxicity at 70.5 h was -5.35%.
Regarding `O=C(CN1CCS(=O)(=O)CC1)NC1CCCc2ccccc21` (configuration not stated), the cytotoxicity at 70.5 h was -7.89%.
As for `N#Cc1cn(CCN2CCc3ccccc3C2)c(=O)[nH]c1=O`, the cytotoxicity at 70.5 h was found to be 0.215%.
Turning to `CS(=O)(=O)Nc1cccc(CNC(=O)c2cccs2)c1`, the cytotoxicity at 70.5 h stood at 19%.
As to `CCCc1cc(C(=O)NCCN2C(=O)c3ccccc3C2=O)[nH]n1`, the cytotoxicity at 70.5 h is -8.43%.
In the case of `CS(=O)(=O)NC1CCCN(Cc2ccc(OCc3ccccn3)cc2)C1` (configuration not stated) it was -1.69%; in that of `O=C(NC1CCN(c2cccc(C(F)(F)F)n2)CC1)C1CC1`, 23.1%; in that of `CC(C(=O)N1CCN(C(=O)c2ccc(F)cc2)CC1)n1ccnc1` (configuration not stated), -4.23%.
`COc1cc2c(cc1OC)CCN(C(=O)Cn1nc(C)cc1C)CC2`: the cytotoxicity at 70.5 h was found to be 2.01%.
`O=C1NCC(C(=O)N(Cc2ccc(C(F)(F)F)cc2)C2CC2)N1` (configuration not stated): the cytotoxicity at 70.5 h came to 23.5%.
On to `CS(=O)(=O)NC1CCCN(Cc2ccccn2)C1` (configuration not stated), for which the cytotoxicity at 70.5 h is -1.75%.
In the case of `O=C1CC[C@H](C(=O)N(Cc2cccc(Br)c2)C2CC2)N1` it was 2.31%.
For the compound `CC(C)(C)c1n[nH]c(C2CN(Cc3ncc[nH]3)CCO2)n1` (configuration not stated), the cytotoxicity at 70.5 h was -0.788%.
With `CS(=O)(=O)Cc1ccc(Cl)cc1NCc1cccc(F)c1F`, the cytotoxicity at 70.5 h is 2.24%.
In the case of `Cc1nc(-c2ccc(NCCc3ccc(O)cc3)nc2)[nH]c(=O)c1C`, the cytotoxicity at 70.5 h was 3.42%.
On to `COC(=O)c1ccc(Cn2nc(C)cc2C)c(F)c1`, for which the cytotoxicity at 70.5 h was -4.1%.
Turning to `COC(=O)c1ccc(Cn2nc(C)cc2C)c(OC)c1`, the cytotoxicity at 70.5 h turned out to be 2.29%.
In the case of `Cn1c(C2CC2)nc2cc(NC(=O)C3CCOC3)ccc21` (configuration not stated), the cytotoxicity at 70.5 h was -4.07%.
For `COc1cc(OC)cc(N2CCC(NCc3cc[nH]n3)C2)c1` (configuration not stated), the cytotoxicity at 70.5 h is 40.6%.
In the case of `Clc1cccc(N2CCC(NCc3cc[nH]n3)C2)c1` (configuration not stated), the cytotoxicity at 70.5 h was determined as 3.22%.
Consider `COCC1CCCN(CCCc2cccc(OC)c2)C1` (configuration not stated), for which the cytotoxicity at 70.5 h was found to be 37.4%.
For the compound `CC(CS(C)(=O)=O)N(C(=O)CCc1ccc(Cl)s1)C1CC1` (configuration not stated), the cytotoxicity at 70.5 h is -3.37%.
With `CCCc1noc(C(C)S(=O)(=O)Cc2nc(C3CC3)no2)n1` (configuration not stated), the cytotoxicity at 70.5 h was -2.49%.
For the compound `CCc1ccc(C(=O)N(CC(F)(F)F)C2CCCOC2)o1` (configuration not stated), the cytotoxicity at 70.5 h is -6.93%.
Regarding `CCC(C)NC(=O)CN1CCOCC1` (configuration not stated), the cytotoxicity at 70.5 h was -5.48%.
`CCc1noc(CS(=O)(=O)Cc2ccccc2Cl)n1`: the cytotoxicity at 70.5 h is -6.3%.
Regarding `O=C(Cc1ccc2c(c1)CCO2)Nc1ccc(-n2cncn2)nc1`, the cytotoxicity at 70.5 h is 16.4%.
In the case of `O=C(Nc1ccc(Cl)cn1)C1CCCN(CCc2ccncc2)C1` (configuration not stated), the cytotoxicity at 70.5 h is -1.77%.
`Cc1oc(NC(=O)C(C)N2CCN(C(=O)C3CC3)CC2)c(C#N)c1C` (configuration not stated): the cytotoxicity at 70.5 h is -1.91%.
With `Cc1oc(NC(=O)C(C)N2CCN(CCO)CC2)c(C#N)c1C` (configuration not stated) the figure was -2.61%.
With `CC(C)(C)C(=O)Cn1nc(C2CC2)cc(C(F)(F)F)c1=O` the figure was -0.663%; with `COc1ccc(C(C)NCc2c[nH]nc2C)cc1Br` (configuration not stated), -6.07%.
